{"source": "patent US8501766B2", "about": "“Treatment of rheumatoid arthritis with a combination of laquinimod and methotrexate” (Teva Pharmaceutical Industries Ltd., priority 2010, dated 2013)", "type_in_all_cases": "in vivo, male DBA/1OlaHsd mice", "key": {"[1]": {"test_system": "semi-established type II collagen arthritis", "assay": "35 day mouse semi-established type II collagen arthritis: body weight, disease incidence, clinical arthritis scores and AUC", "settings": "for Reduction of clinical arthritis scores expressed as area under the curve (AUC): days 18-34; for Reduction of clinical arthritis scores expressed as area under the curve (AUC) / Daily clinical arthritis scores: vs vehicle controls", "experimental": "Mouse type II collagen arthritis is an art-recognized animal model for rheumatoid arthritis in humans (Bendele, 2001). […] Mice were terminated on day 34. […] Evaluation of serum anti-type II collagen antibody levels were also performed (groups 1-3, 6 and 8 only). All animals survived to study termination. • 1. […] Mice were anesthetized with Isoflurane and given 150 μl of Bovine Type II collagen in Freund's complete adjuvant injections (Sigma) containing bovine type II collagen (Elastin Products, Owensville, Mo.) (2 mg/ml) at the base of the tail (D0 and day 21). • 3. Mice were randomized by body weight into treatment groups on study day 18. • 4. MTX was provided by Bolder BioPATH, Inc. as a 1 mg/ml stock solution purchased from MWI and was prepared as a 0.05 mg/ml solution in 1% CMC for dosing at 10 ml/kg. • 5. All dose solutions were prepared to deliver at 10 ml/kg (0.3 ml/30 g) mouse. • 6. Treatment is initiated on study day 18 and continued once daily, every day (po, qd) according to Table 1. [table] • 7. During the period of treatment, clinical scores were given for each of the paws (right front, left front, right rear, left rear) according to Table 2. [table] • 8. On days 21-35, onset of arthritis occurred. Mice were weighed on arthritis days 18, 20, 22, 24, 26, 28, 30, 32, and prior to tissue collection on day 34 (final day). • 9. At necropsy, animals from all groups were bled via cardiac puncture for serum and terminated via cervical dislocation. Fore paws, hind paws and knees were removed and placed in 10% NBF. Whole blood was allowed to clot at room temperature for approximately 2 hours before being spun at 13,000 rpm for 8 minutes. • 10. Processing of Joints: Following 1-2 days in fixative and then 4-5 days in decalcifier, the joints were processed, embedded, sectioned and stained with toluidine blue and H&E (2 slides per animal). Only fore and hind paws and knees were processed initially (6 joints/mouse). • 11. Morphologic Pathology Methods: […] Hind paws, fore paws, and knees were embedded and sectioned in the frontal plane. Six joints from each animal were processed for histopathology elevation. • 12. Tissue Processing and Evaluation: • a. place joints in decalcifier, • b. trim joints, wash, process tissues, • c. embed joints, • d. section tissues, stain tissues, • e. histopathologic evaluation, and • f. data processing, QC, prepare graphs and report. Histopathologic Scoring Methods for Mouse Joints with Type II Collagen Arthritis Clinical data for paw scores (means for animal) were analyzed by determining the area under the dosing curve (AUC) for study days 18-34. For calculation of AUC, the daily mean scores for each mouse were entered into Microsoft Excel and the area between the treatment days after the onset of disease to the final day was computed. Means for each group were determined and the percent inhibition from arthritis controls was calculated by comparing values for treated and normal animals. […] Percent inhibition of clinical parameters and AUC is calculated using the following formula: % Inhibition=[…], where A=Mean Disease Control−Mean Normal • B=Mean Treated−Mean Normal Results"}, "[2]": {"test_system": "semi-established type II collagen arthritis", "assay": "Histopathology of fore paws, hind paws and knees in mouse type II collagen arthritis", "settings": "vs vehicle controls; for Paw histopathology, reduction of summed scores: 4 paws; for Six-joint mean histopathology, reduction of summed scores: four paws and two knees", "experimental": "Mice were terminated on day 34. […] Evaluation of serum anti-type II collagen antibody levels were also performed (groups 1-3, 6 and 8 only). All animals survived to study termination. • 8. On days 21-35, onset of arthritis occurred. Mice were weighed on arthritis days 18, 20, 22, 24, 26, 28, 30, 32, and prior to tissue collection on day 34 (final day). • 9. At necropsy, animals from all groups were bled via cardiac puncture for serum and terminated via cervical dislocation. Fore paws, hind paws and knees were removed and placed in 10% NBF. Whole blood was allowed to clot at room temperature for approximately 2 hours before being spun at 13,000 rpm for 8 minutes. • 10. Processing of Joints: Following 1-2 days in fixative and then 4-5 days in decalcifier, the joints were processed, embedded, sectioned and stained with toluidine blue and H&E (2 slides per animal). Only fore and hind paws and knees were processed initially (6 joints/mouse). • 11. Morphologic Pathology Methods: […] Hind paws, fore paws, and knees were embedded and sectioned in the frontal plane. Six joints from each animal were processed for histopathology elevation. • 12. Tissue Processing and Evaluation: • a. place joints in decalcifier, • b. trim joints, wash, process tissues, • c. embed joints, • d. section tissues, stain tissues, • e. histopathologic evaluation, and • f. data processing, QC, prepare graphs and report. Histopathologic Scoring Methods for Mouse Joints with Type II Collagen Arthritis When scoring paws or ankles from mice with lesions of type II collagen arthritis, severity of changes as well as number of individual joints affected must be considered. When only 1-3 joints of the paws or ankles out of a possibility of numerous metacarpal/metatarsal/digit or tarsal/tibiotarsal joints were affected, an arbitrary assignment of a maximum score of 1, 2 or 3 for parameters below (Tables 3-6) was given depending on severity of changes. If more than 3 joints were involved, the criteria below (Tables 3-6) were applied to the most severely affected/majority of joints. [table] [table] [table] [table] For each animal, the inflammation, pannus, cartilage damage and bone damage scores was determined for each of the 6 joints submitted. A sum total (all 6 joints) animal score and a six joint mean animal score was determined as well as sums and means for each of the individual parameters. Data were also expressed as means for paws (4 joints) or knees (2 joints). Parameters for the various groups are then compared to disease control animals. Clinical data for paw scores (means for animal) were analyzed by determining the area under the dosing curve (AUC) for study days 18-34. For calculation of AUC, the daily mean scores for each mouse were entered into Microsoft Excel and the area between the treatment days after the onset of disease to the final day was computed. Means for each group were determined and the percent inhibition from arthritis controls was calculated by comparing values for treated and normal animals."}, "[3]": {"test_system": "serum anti-type II collagen antibody", "assay": "Serum anti-type II collagen antibody levels in mouse type II collagen arthritis", "settings": "vs vehicle controls", "quoted_text": "Mice were terminated on day 34. […] Evaluation of serum anti-type II collagen antibody levels were also performed (groups 1-3, 6 and 8 only). […] At necropsy, animals from all groups were bled via cardiac puncture for serum and terminated via cervical dislocation. […] Whole blood was allowed to clot at room temperature for approximately 2 hours before being spun at 13,000 rpm for 8 minutes. • 10. […] Histopathologic Scoring Methods for Mouse Joints with Type II Collagen Arthritis Serum analysis for anti-TTC levels was performed on mice from groups 1-3, 6, and 8 only."}}}
{"smiles": "CN(Cc1cnc2nc(N)nc(N)c2n1)c1ccc(C(=O)N[C@@H](CCC(=O)O)C(=O)O)cc1", "note": "[MTX, Methotrexate]", "values": [{"measurement": "Disease incidence", "setting": "[1]; MTX 0.5 mg/kg po QD, at study termination", "result": 90, "unit": "%"}, {"measurement": "Reduction of clinical arthritis scores expressed as area under the curve (AUC)", "setting": "[1]; MTX 0.5 mg/kg po QD", "result": 50, "unit": "%"}, {"measurement": "Daily clinical arthritis scores", "setting": "[1]; MTX 0.5 mg/kg po QD, significant days 27-34", "result": "significantly reduced"}, {"measurement": "Paw histopathology, reduction of summed scores", "setting": "[2]; MTX 0.5 mg/kg po QD", "result": 46, "unit": "%"}, {"measurement": "Six-joint mean histopathology, reduction of summed scores", "setting": "[2]; MTX 0.5 mg/kg po QD", "result": 43, "unit": "%"}, {"measurement": "Serum Anti-TTC level", "setting": "[3]; MTX 0.5 mg/kg po QD", "result": "not significantly affected"}]}
{"smiles": "CCN(C(=O)c1c(O)c2c(Cl)cccc2n(C)c1=O)c1ccccc1", "note": "[Laquinimod]", "values": [{"measurement": "Disease incidence", "setting": "[1]; 0.2 mg/kg Laquinimod po QD, by study day 28", "result": 100, "unit": "%"}, {"measurement": "Daily clinical arthritis scores prior to disease occurrence in the vehicle control group", "setting": "[1]; 0.2 mg/kg Laquinimod po QD, d23", "result": "significantly elevated"}, {"measurement": "Reduction of clinical arthritis scores expressed as area under the curve (AUC)", "setting": "[1]; 0.2 mg/kg Laquinimod po QD", "result": 32, "unit": "%"}, {"measurement": "Daily clinical arthritis scores", "setting": "[1]; 0.2 mg/kg Laquinimod po QD, significant d28-34", "result": "significantly reduced"}, {"measurement": "Disease incidence", "setting": "[1]; 1 mg/kg Laquinimod po QD, at study termination", "result": 90, "unit": "%"}, {"measurement": "Daily clinical arthritis scores prior to disease occurrence in the vehicle control group", "setting": "[1]; 1 mg/kg Laquinimod po QD, d22-24", "result": "significantly elevated"}, {"measurement": "Reduction of clinical arthritis scores expressed as area under the curve (AUC)", "setting": "[1]; 1 mg/kg Laquinimod po QD", "result": 52, "unit": "%"}, {"measurement": "Daily clinical arthritis scores", "setting": "[1]; 1 mg/kg Laquinimod po QD, significant d25-34", "result": "significantly reduced"}, {"measurement": "Disease incidence", "setting": "[1]; 5 mg/kg Laquinimod po QD", "result": 70, "unit": "%"}, {"measurement": "Daily clinical arthritis scores prior to disease occurrence in the vehicle control group", "setting": "[1]; 5 mg/kg Laquinimod po QD, d22-23", "result": "significantly elevated"}, {"measurement": "Reduction of clinical arthritis scores expressed as area under the curve (AUC)", "setting": "[1]; 5 mg/kg Laquinimod po QD", "result": 69, "unit": "%"}, {"measurement": "Daily clinical arthritis scores", "setting": "[1]; 5 mg/kg Laquinimod po QD, significant d24-34", "result": "significantly reduced"}, {"measurement": "Paw histopathology, reduction of summed scores", "setting": "[2]; 1 mg/kg Laquinimod po QD", "result": 61, "unit": "%"}, {"measurement": "Six-joint mean histopathology, reduction of summed scores", "setting": "[2]; 1 mg/kg Laquinimod po QD", "result": 60, "unit": "%"}, {"measurement": "Reduction of knee cartilage damage", "setting": "[2]; 1 mg/kg Laquinimod po QD", "result": 62, "unit": "%"}, {"measurement": "Reduction of knee inflammation", "setting": "[2]; 1 mg/kg Laquinimod po QD", "result": 51, "unit": "%"}, {"measurement": "Reduction of knee pannus", "setting": "[2]; 1 mg/kg Laquinimod po QD", "result": 59, "unit": "%"}, {"measurement": "Reduction of summed knee scores", "setting": "[2]; 1 mg/kg Laquinimod po QD", "result": 57, "unit": "%"}, {"measurement": "Serum Anti-TTC level", "setting": "[3]; 5 mg/kg Laquinimod po QD", "result": "not significantly affected"}]}
